{"source": "patent US9650423B2", "about": "“Long peptides of 22-45 amino acid residues that induce and/or enhance antigen specific immune responses” (priority 2000, dated 2017)", "key": {"HLA-DR1 (DRB*0101)": {"molecular_target": "T1, HLA-DR1 (DRB*0101) (Homo sapiens, UniProt P01903+P01911, A100R/D57E/F55L/F60I/F76Y/I96L/L162R/M171V/P40L/Q125E/R42F/V115G/Y59C)", "T1 construct": "endogenous in cells; host or cells: LG2.1 B-lymphoblastic cell line, homozygous for HLA-DR", "test": "biochemical", "assay_type": "binding", "conditions": "read-out: Binding DR1, IC50"}, "HLA-DR3 (DRB*0301)": {"molecular_target": "HLA-DR3 (DRB*0301)", "test": "HLA-DR-peptide binding assay", "set-up": "species or system human", "conditions": "HPV16-E7 22-mer peptides; >70 indicates undetectable binding; read-out: Binding DR3, IC50"}, "HLA-DR2 (DRB1*0201)": {"molecular_target": "HLA-DR2 (DRB1*0201)", "test": "HLA-DR-peptide binding assay", "set-up": "species or system human", "conditions": "HPV16-E7 22-mer peptides; >70 indicates undetectable binding; read-out: Binding DR2, IC50"}, "HLA-DR4 (DRB*0401)": {"molecular_target": "HLA-DR4 (DRB*0401)", "test": "HLA-DR-peptide binding assay", "set-up": "species or system human", "conditions": "HPV16-E7 22-mer peptides; >70 indicates undetectable binding; read-out: Binding DR4, IC50"}, "[1]": {"tested_on": "PBMC or cord blood cells (CBC)", "assay_type": "cell-based, human"}, "HLA-DR7 (DRB1*0701)": {"molecular_target": "HLA-DR7 (DRB1*0701) (Homo sapiens, UniProt P01903+P01911, A100R/A102G/A103Q/D57E/D86V/E43K/F76Y/K127E/L162R/M171V/P40G/Q125H/Q99D/R33Q/R42Y/R54Q/S133A/S66F/T210M/V115G/Y107V/Y59L/Y89S)", "conditions": "read-out: Binding DR7, IC50"}, "[2]": {"tested_on": "E7 49-57-specific CD8+ T cells", "test": "Vaccination, H-2Db E7 49-57 tetramer staining of spleen cultures", "assay_type": "in vivo, C57BL/6 mice", "conditions": "B6 mice", "procedure": "(§1) Immunization strategies. C57BL/6 mice were injected subcutaneously with either 50 μg E7^49-57 peptide or 150 μg E7^43-77 35-mer dissolved in PBS in order to achieve similar molar levels of the E7^49-57 CTL epitope in both cases. Combinations with various adjuvantia were tested. In the case of IFA and Montanide, the dissolved peptides were emulsified in 50% of these respective substances. ODN-CpG (50 μg/mouse), MPL (10 μg/mouse) and GM-CSF (4 μg/mouse) were all dissolved in PBS and mixed with the peptides before subcutaneous vaccination. The total injected volume was 200 μl/mouse.\nT cell cultures. T cells were obtained from immunized mice by culturing spleen cells (5×10^6 cells/well of a 24-wells plate) in complete medium in the presence of 0.5×10^6 E7^49-57-expressing cells (tumor cell line 13.2) or, when indicated, in the presence of D1 cells.\nTetramer staining. Spleen cultures, stimulated with tumor cell line 13.2 for seven days, were transferred at an amount of 40×10^4 per well to 96-well V-bottom microtiter plates and washed twice with PBS/BSA 0.5%. Subsequently, PE-labelled E749-57-containing tetramer was added. After 30 minutes of incubation at room temperature, cells were washed twice with PBS/BSA 0.5% and incubated with FITC-labelled anti CD8b Ab for 30 minutes. Subsequently cells were washed twice in PBS/BSA 0.5%, suspended in PBS/BSA 0.5% containing Propidium Iodide (PI) (0.5) μg/ml) and transferred to tubes. Cell samples were analysed in a FACSCalibur flow cytometer (Becton Dickinson, San Jose, Calif., USA) using CellQuest software. A total of 20×10^4 events was analysed for fluorescence intensity. Debris was gated out using the PI staining and subsequently the CD8^+ fraction was gated. […] As a positive control the HPV16 E7 specific CTL clone 9.5 was used."}, "[3]": {"tested_on": "HPV16 E7-specific T-helper clones", "test": "HPV16 E7-specific Th-clones: proliferation and IFNγ production", "assay_type": "cell-based, human", "conditions": "Th-clone from HLA-DR15, 4 and DQ6,7 positive PBMC raised against peptide E741-62", "procedure": "Peptide-specific T-cell bulk cultures were generated as described previously (van der Burg et al., 1999) using either the E7 22-mer or E7 35-mer peptides. Specific proliferation was measured by incubation of 50,000 responders with an equal amount of irradiated (30Gy) APC (autologous PBMC unless indicated otherwise) and peptide or protein as indicated. E7-peptide and -protein-specific bulk T-cells were cloned by limiting dilution as described previously (van der Burg et al., 1999).\nTo determine specific excretion of cytokines, T-cell clones were stimulated by incubation of 50.000 T-cells with an equal amount of APC (30Gy) together with 10 μg/ml peptide, control peptide, E7 protein or control protein as indicated. After 24 hours of incubation, supernatant was harvested and replicate wells were pooled. Cytokine production was measured by Enzyme-Linked Immunosorbent Assay (ELISA) as described previously (van der Burg et al., 1999)."}, "[4]": {"tested_on": "E7 43-77-specific IFNγ-producing CD4+ T cells", "test": "Vaccination, intracellular IFN-γ staining of CD4+ T cells", "assay_type": "in vivo, C57BL/6 mice", "conditions": "B6 mice, vaccinated once, IFA", "procedure": "as §1\nBefore use, the D1 cells were incubated for 16 hours with the E7^43-77 35-mer and subsequently activated by adding LPS (10 μg/ml) for 6 hours and then thoroughly washed. Complete medium consists of Iscove's Modified Dulbecco's Medium (IMDM; BioWhittaker, Walkersville, Md., USA) supplemented with 8% FCS, 100 IU/ml penicillin, 2 mM glutamine (ICN, Aurora, Ohio, USA) and 30 μM 2-ME (Merck, Darmstadt, Germany). Cultures were maintained at 37° C. in humidified air containing 5% CO2. No exogenous IL-2 was added. […]\nIntracellular cytokine staining. […] Subsequently, the percentage of CD8^+ and CD4^+ IFN-γ producing T cells was measured as described before (van der Burg et al., 2001)."}, "[5]": {"tested_on": "E7 49-57-specific CD8+ T cells", "test": "Vaccination, H-2Db E7 49-57 tetramer staining of spleen cultures", "assay_type": "in vivo, C57BL/6 mice", "conditions": "MHC class II−/− mice"}}, "note": "Several values for one entry are separate records, joined by “and”; a condition that tells them apart may be missing. Equal entries are not always repeated. No end group written: not given here."}
{"sequence": "STHVDIRTLEDLLMGTLGIVCP [E7 71-92]", "values": [{"measurement": "IC50", "setting": "HLA-DR1 (DRB*0101)", "value": 12, "unit": "µM"}, {"measurement": "IC50", "setting": "HLA-DR3 (DRB*0301)", "value": "> 70", "unit": "µM"}, {"measurement": "IC50", "setting": "HLA-DR2 (DRB1*0201)", "value": 2, "unit": "µM"}, {"measurement": "IC50", "setting": "HLA-DR4 (DRB*0401)", "value": "> 70", "unit": "µM"}, {"measurement": "number of antigen-specific cells (IFNγ ELISPOT)", "setting": "[1]", "value": "2 per 100,000 cord blood cells or PBMC and <1 per 100,000 cord blood cells or PBMC"}, {"measurement": "IC50", "setting": "HLA-DR7 (DRB1*0701)", "value": "> 70", "unit": "µM"}]}
{"sequence": "GQAEPDRAHYNIVTFCCKCDSTLRLCVQSTHVDIR [E7 43-77]", "values": [{"measurement": "E7 49-57-specific CD8+ T cell response", "setting": "[2]; prime-boost, IFA", "value": "vigorous"}, {"measurement": "mice with E7 49-57-specific CTL response", "setting": "[2]; primed and boosted 50 days later, IFA", "value": "9/11"}, {"measurement": "E7 49-57-specific CD8+ T cells, mean", "setting": "[2]; primed and boosted, IFA", "value": 19, "unit": "%"}, {"measurement": "E7 49-57-specific CD8+ T cells, range", "setting": "[2]; primed and boosted, IFA", "value": "5-40%"}, {"measurement": "E7 49-57-specific CTL response", "setting": "[2]; vaccinated once, GM-CSF and IFA", "value": "moderate"}, {"measurement": "CD8+ T cells stained with tetramers", "setting": "[2]; vaccinated once, IFA, responders", "value": "~5", "unit": "%"}, {"measurement": "mice responding to the vaccine (tetramer staining)", "setting": "[2]; vaccinated once, IFA, spleens day 10", "value": "3 out of 9"}, {"measurement": "mice with E7 49-57-specific CTL responses", "setting": "[2]; vaccinated once, MPL or ODN-CpG", "value": "in all mice"}, {"measurement": "level of the CTL response", "setting": "[2]; vaccinated once, MPL or ODN-CpG, majority of animals", "value": "up to 40 % of CD8+ T cells"}, {"measurement": "E7 49-57-specific CTL response", "setting": "[2]; vaccinated once, Montanide adjuvant", "value": "no responses were observed"}, {"measurement": "E7 49-57-specific CTL response", "setting": "[2]; vaccinated once, combined with anti-CD40 antibody or GM-CSF", "value": "no or minimal CTL responses"}, {"measurement": "response of HLA-DR15 restricted Th-clone to pulsed APC", "setting": "[3]", "value": "specifically respond"}, {"measurement": "E7 43-77-specific IFNγ-producing CD4+ T cells", "setting": "[4]", "value": "≥ 5", "unit": "%"}, {"measurement": "CTL responses", "setting": "[5]; one vaccination, ODN-CpG", "value": "robust CTL responses"}, {"measurement": "number of E7 49-57-specific CTL", "setting": "[5]; prime-boost, IFA", "value": "far lower than found in B6 mice after two vaccinations"}]}
